In brackets after ≈: the same amount, converted by molar mass.
Assay: Toxicity against Artemia salina after 24 hrs
Format: organism-based
Settings: in vivo
In the case of CC(C)C/C=C/[C@@H](C)[C@H]1CC[C@H]2[C@@H]3[C@@H](O)C=C4C[C@@H](O)CC[C@]4(CO)[C@H]3CC[C@]12C, the LC50 at 24 h is reported as 30.7 µg/mL (≈ 73.7 µM).
CC(C)CCC[C@@H](C)[C@H]1CC[C@H]2[C@@H]3[C@@H](O)C=C4C[C@@H](O)CC[C@]4(CO)[C@@]3(O)CC[C@]12C showed an LC50 at 24 h of 7.2 µg/mL (≈ 16.6 µM).
Work on CC(C)CCC[C@](C)(O)[C@H]1C(=O)C[C@H]2[C@@H]3CCC4=CC(=O)C=C[C@]4(C)[C@H]3CC[C@@]21CO yielded an LC50 at 24 h of 139 µg/mL (≈ 325 µM).
CC(C)CCC[C@@H](C)[C@H]1CC[C@H]2[C@@H]3[C@@H](O)C=C4C[C@@H](O)CC[C@]4(CO)[C@H]3CC[C@]12C gave an LC50 at 24 h of 55.6 µg/mL (≈ 133 µM).

From ChEMBL document CHEMBL1159011, “Four new bioactive polyhydroxylated sterols from the black coral Antipathes subpinnata” (J Nat Prod, 1992)
